Measured values as given in patent US6737383B1, “Herbicidal oxadiazolidines” (priority 1999, dated 2004).

Legend:
[1] = test system: smallflower flatsedge; assay: Test B flood test smallflower flatsedge; assay type: in vivo, Cyperus difformis; settings: Pre-emergence
Method in brief: (§1)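 Plants were grown to the 2-leaf stage before treatment with test chemical, then held in a greenhouse for twelve to sixteen days. Injury was visually rated against untreated controls on a 0–10 scale, where 0 is no effect and 10 is complete control.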

[2] = test system: blackgrass; assay: Test B pre/postemergence blackgrass; assay type: in vivo, Alopecurus myosuroides
Method in brief: (§2)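 Herbicidal effect was estimated by eye on a ten-point control scale after plants spent twelve to sixteen days in a greenhouse following soil or foliar treatment. Foliar sprays targeted plants at one to four leaves; all doses were formulated in a non-phytotoxic solvent with surfactant.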

[3] = test system: surinam grass; assay: Test B pre/postemergence surinam grass; assay type: in vivo, Brachiaria decumbens
Method in brief: as §2

[4] = test system: corn; assay: Test B pre/postemergence corn; assay type: in vivo, Zea mays
Method in brief: as §2

[5] = test system: velvetleaf; assay: Test B pre/postemergence velvetleaf; assay type: in vivo, Abutilon theophrasti
Method in brief: as §2

[6] = test system: purple nutsedge; assay: Test B pre/postemergence purple nutsedge; assay type: in vivo, Cyperus rotundus
Method in brief: as §2

[7] = test system: sugar beet; assay: Test B pre/postemergence sugar beet; assay type: in vivo, Beta vulgaris
Method in brief: as §2

[8] = test system: wild oat; assay: Test B pre/postemergence wild oat; assay type: in vivo, Avena fatua
Method in brief: as §2

[9] = test system: duck salad; assay: Test B flood test duck salad; assay type: in vivo, Heteranthera limosa; settings: Pre-emergence
Method in brief: as §1

[10] = test system: crabgrass; assay: Test B pre/postemergence crabgrass; assay type: in vivo, Digitaria sanguinalis
Method in brief: as §2

[11] = test system: rice; assay: Test B flood test rice; assay type: in vivo, Oryza sativa; settings: Pre-emergence
Method in brief: as §1

[12] = test system: rape; assay: Test B pre/postemergence rape; assay type: in vivo, Brassica napus
Method in brief: as §2

[13] = test system: wheat; assay: Test B pre/postemergence wheat; assay type: in vivo, Triticum aestivum
Method in brief: as §2

[14] = test system: giant foxtail; assay: Test B pre/postemergence giant foxtail; assay type: in vivo, Setaria faberii
Method in brief: as §2

[15] = test system: bedstraw; assay: Test B pre/postemergence bedstraw; assay type: in vivo, Galium aparine
Method in brief: as §2

[16] = test system: bamyardgrass; assay: Test B flood test barnyardgrass; assay type: in vivo, Echinochloa crus-galli; settings: Pre-emergence
Method in brief: as §1

[17] = Rate 1000 g/ha, scale 0 to 10 (0 no effect, 10 complete control)
[18] = Rate 125 g/ha, flood test species, scale 0 to 10 where 0 is no effect and 10 is complete control
[19] = Rate 250 g/ha, flood-test species, scale 0 to 10, 0 is no effect, 10 is complete control
[20] = Rate 500 g/ha, flood test species, scale 0 to 10 (0 no effect, 10 complete control)
[21] = Postemergence, Rate 1000 g/ha, scale 0 to 10 (0 no effect, 10 complete control)
[22] = Preemergence, Rate 250 g/ha, scale of 0 to 10 where 0 is no effect and 10 is complete control
[23] = Preemergence, Rate 500 g/ha, scale of 0 to 10 where 0 is no effect and 10 is complete control
[24] = Rate 125 g/ha, Postemergence, scale 0 to 10
[25] = Rate 125 g/ha, Preemergence, scale of 0 to 10 where 0 is no effect and 10 is complete control
[26] = Rate 500 g/ha, Postemergence, scale 0 to 10, 0 no effect, 10 complete control
[27] = Rate 1000 g/ha, Preemergence, scale 0 to 10 (0 no effect, 10 complete control)

Question: Which results are given for `CCOC(=O)C(C)N(C(=O)n1oc(=O)n(-c2ccccc2C)c1=O)c1ccc(F)cc1` (stereo not shown) [Compound 247]?
Answer: S. Flatsedge plant response rating [1, 17]: 0; S. Flatsedge plant response rating [1, 18]: 0; S. Flatsedge plant response rating [1, 19]: 0; S. Flatsedge plant response rating [1, 20]: 0; Blackgrass plant response rating [2, 21]: 0; Blackgrass plant response rating [2, 22]: 0; Plant response rating, Blackgrass [2, 23]: 0; Blackgrass plant response rating [2, 24]: 0; Blackgrass plant response rating [2, 25]: 0; Plant response rating (0 to 10; 0 is no effect, 10 is complete control), Blackgrass ([2]; Rate 250 g/ha, Postemergence): 0; Blackgrass plant response rating [2, 26]: 0; Plant response rating, Blackgrass [2, 27]: 0; B. signalgrass plant response rating [3, 21]: 0; B. signalgrass plant response rating [3, 22]: 0; Plant response rating, B. signalgrass [3, 23]: 0; B. signalgrass plant response rating ([3]; Rate 125 g/ha, Postemergence, scale 0 (no effect) to 10 (complete control)): 0; B. signalgrass plant response rating [3, 25]: 0; Plant response rating (0 to 10; 0 is no effect, 10 is complete control), B. signalgrass ([3]; Rate 250 g/ha, Postemergence): 0; B. signalgrass plant response rating [3, 26]: 0; Plant response rating, B. signalgrass [3, 27]: 0; Corn plant response rating [4, 21]: 0; Corn plant response rating [4, 22]: 0; Plant response rating, Corn [4, 23]: 0; Corn plant response rating [4, 24]: 0; Corn plant response rating [4, 25]: 0; Plant response rating (0 to 10; 0 is no effect, 10 is complete control), Corn ([4]; Rate 250 g/ha, Postemergence): 0; Corn plant response rating [4, 26]: 0; Plant response rating, Corn [4, 27]: 0; Velvetleaf plant response rating [5, 21]: 0; Velvetleaf plant response rating [5, 22]: 0; Plant response rating, Velvetleaf [5, 23]: 0; Velvetleaf plant response rating [5, 25]: 0; Velvetleaf plant response rating [5, 26]: 0; Plant response rating, Velvetleaf [5, 27]: 0; Nutsedge plant response rating [6, 21]: 0; Nutsedge plant response rating [6, 22]: 0; Plant response rating (0 to 10; 0 is no effect, 10 is complete control), Nutsedge ([6]; Rate 250 g/ha, Postemergence): 0; Nutsedge plant response rating [6, 26]: 0; Sugarbeets plant response rating [7, 21]: 0; Sugarbeets plant response rating [7, 22]: 0; Plant response rating, Sugarbeets [7, 23]: 0; Sugarbeets plant response rating [7, 25]: 0; Sugarbeets plant response rating [7, 26]: 0; Plant response rating, Sugarbeets [7, 27]: 0; Wild oats plant response rating [8, 21]: 0; Wild oats plant response rating [8, 22]: 0; Plant response rating, Wild oats [8, 23]: 0; Wild oats plant response rating [8, 25]: 0; Wild oats plant response rating [8, 26]: 0; Plant response rating, Wild oats [8, 27]: 0; Ducksalad plant response rating [9, 17]: 0; Ducksalad plant response rating [9, 18]: 0; Ducksalad plant response rating [9, 19]: 0; Ducksalad plant response rating [9, 20]: 0; Crabgrass plant response rating [10, 21]: 0; Crabgrass plant response rating [10, 22]: 2; Plant response rating, Crabgrass [10, 23]: 2; Crabgrass plant response rating [10, 25]: 0; Plant response rating (0 to 10; 0 is no effect, 10 is complete control), Crabgrass ([10]; Rate 250 g/ha, Postemergence): 0; Crabgrass plant response rating [10, 26]: 0; Plant response rating, Crabgrass [10, 27]: 3; Rice plant response rating [11, 17]: 0; Rice plant response rating [11, 18]: 0; Rice plant response rating [11, 19]: 0; Rice plant response rating [11, 20]: 0; Rape plant response rating [12, 21]: 0; Rape plant response rating [12, 22]: 0; Plant response rating, Rape [12, 23]: 0; Rape plant response rating [12, 25]: 0; Plant response rating (0 to 10; 0 is no effect, 10 is complete control), Rape ([12]; Rate 250 g/ha, Postemergence): 0; Rape plant response rating [12, 26]: 0; Plant response rating, Rape [12, 27]: 0; Wheat plant response rating [13, 21]: 0; Wheat plant response rating [13, 22]: 0; Plant response rating, Wheat [13, 23]: 0; Wheat plant response rating [13, 25]: 0; Wheat plant response rating [13, 26]: 0; Plant response rating, Wheat [13, 27]: 0; Giant foxtail plant response rating [14, 21]: 0; Giant foxtail plant response rating [14, 22]: 2; Plant response rating, Giant foxtail [14, 23]: 3; Giant foxtail plant response rating [14, 25]: 0; Plant response rating (0 to 10; 0 is no effect, 10 is complete control), Giant foxtail ([14]; Rate 250 g/ha, Postemergence): 0; Giant foxtail plant response rating [14, 26]: 0; Plant response rating, Giant foxtail [14, 27]: 7; Bedstraw plant response rating [15, 21]: 0; Bedstraw plant response rating [15, 22]: 0; Plant response rating, Bedstraw [15, 23]: 0; Bedstraw plant response rating [15, 24]: 0; Bedstraw plant response rating [15, 25]: 0; Plant response rating (0 to 10; 0 is no effect, 10 is complete control), Bedstraw ([15]; Rate 250 g/ha, Postemergence): 0; Bedstraw plant response rating [15, 26]: 0; Plant response rating, Bedstraw [15, 27]: 0; Barnyardgrass plant response rating [16, 17]: 0; Barnyardgrass plant response rating [16, 18]: 0; Barnyardgrass plant response rating [16, 19]: 0; Barnyardgrass plant response rating [16, 20]: 0
